Tests used:
Type in all cases: physicochemical
[1] = Dynamic vapor sorption (DVS)
Method: DVS was measured via a SMS (Surface Measurement Systems) DVS Intrinsic. The relative humidity at 25° C. were calibrated against deliquescence point of LiCl, Mg(NO3)2 and KCl.
(onset temperature). Considering the low TGA weight loss and single sharp DSC endotherm, Form A was postulated to be an anhydrate. […] The HPLC purity of starting material was measured as 99.78 area % (see chromatogram of FIG. 6) and the impurity summary is listed in Table 2.

[2] = 24-Hrs solubility in pH buffers; conditions: for Final Form: 24 hrs
Method: 24-Hrs solubility of Form A was measured in pH buffers (i.e., pH 2.0, 4.0, 6.0, 7.0, 8.0) at RT. Solids were suspended in pH buffers with target conc. of ˜10 mg/mL.

[3] = Kinetic solubility in bio-relevant media and H2O; conditions: for Final Form: 37° C.
Method: Solids were suspended in FaSSIF, FeSSIF, SGF and H2O with target conc. of ˜10 mg/mL. The suspensions were agitated on a rolling incubator at 25 rpm (in the incubator set at 37° C.) for 1, 4 and 24 hrs. At each time point, 1 mL of the suspension was pipetted out for centrifugation at 15000 rpm (3 min) and filtration through 0.45 μm membrane to obtain supernatant for HPLC solubility and pH tests, the residual solids were analyzed by XRPD.

[4] = Physical and chemical stability of solid on storage (XRPD, HPLC purity)
Method: To evaluate the physical and chemical stability, Compound (1) Form A was stored in 3 conditions (40° C./75% RH; 25° C./60% RH; and 60° C.) for one and four weeks.

[5] = Solution stability in pH buffers; conditions: 37° C.
Method: Solution stability study was performed in pH 2.0/4.0/6.0/7.0 (24 hrs) and pH 8.0 (24 hrs and 96 hrs) buffers. Solids were dissolved with pH buffers with target conc. of ˜0.5 mg/ml to form clear solutions and stored at 37° C. for 24 hrs or 96 hrs.

[6] = all conditions (40° C./75% RH, 25° C./60% RH, 60° C.; one and four weeks)
[7] = pH 7.0 (50 mM Phosphate), 24 hrs
[8] = pH 8.0 (50 mM Phosphate), 24 hrs
[9] = pH 8.0 (50 mM Phosphate), 96 hrs

water uptake (DVS) ([1]; 25° C./80% RH): 0.024%
form change after DVS test (XRPD) ([1]; after DVS test): no form change
Final Form ([2]; pH 2.0 (50 mM HCl—KCl)): Form A
Final Form ([2]; pH 4.0 (50 mM Citrate)): Form A
Final Form ([2]; pH 6.0 (50 mM Citrate)): Form A
Final Form ([2]; pH 7.0 (50 mM Phosphate)): Form A
Final Form ([2]; pH 8.0 (50 mM Phosphate)): Form A
form change after equilibrium solubility evaluation (XRPD) ([2]; pH buffers): no form change
Final Form ([3]; FaSSIF (pH 6.5), 1 hr): Form A
Final Form ([3]; FaSSIF (pH 6.5), 4 hr): Form A
Final Form ([3]; FaSSIF (pH 6.5), 24 hr): Form A
Final Form ([3]; FeSSIF (pH 5.0), 1 hr): Form A
Final Form ([3]; FeSSIF (pH 5.0), 4 hr): Form A
Final Form ([3]; FeSSIF (pH 5.0), 24 hr): Form A
Final Form ([3]; H2O (pH 6.5), 1 hr): Form A
Final Form ([3]; H2O (pH 6.5), 4 hr): Form A
Final Form ([3]; H2O (pH 6.5), 24 hr): Form A
Final Form ([3]; SGF (pH 1.8), 1 hr): Form A
Final Form ([3]; SGF (pH 1.8), 4 hr): Form A
Final Form ([3]; SGF (pH 1.8), 24 hr): Form A
form change after kinetic solubility test (XRPD) ([3]; bio-relevant media or H2O): No form change
API (RRT 1.00) ([4]; 1 week, 25° C./60% RH): 99.92 % Area
Description ([4]; 1 week, 25° C./60% RH): White powder
Final Form ([4]; 1 week, 25° C./60% RH): Form A
Imp.1 (RRT 0.68) ([4]; 1 week, 25° C./60% RH): 0.08 % Area
Purity vs. initial (%) ([4]; 1 week, 25° C./60% RH): 100.0%
API (RRT 1.00) ([4]; 1 week, 40° C./75% RH): 99.89 % Area
Description ([4]; 1 week, 40° C./75% RH): White powder
Final Form ([4]; 1 week, 40° C./75% RH): Form A
Imp.1 (RRT 0.68) ([4]; 1 week, 40° C./75% RH): 0.11 % Area
Purity vs. initial (%) ([4]; 1 week, 40° C./75% RH): 100.0%
API (RRT 1.00) ([4]; 1 week, 60° C.): 99.90 % Area
Description ([4]; 1 week, 60° C.): White powder
Final Form ([4]; 1 week, 60° C.): Form A
Imp.1 (RRT 0.68) ([4]; 1 week, 60° C.): 0.10 % Area
Purity vs. initial (%) ([4]; 1 week, 60° C.): 100.0%
API (RRT 1.00) ([4]; 4 weeks, 25° C./60% RH): 99.90 % Area
Description ([4]; 4 weeks, 25° C./60% RH): White powder
Final Form ([4]; 4 weeks, 25° C./60% RH): Form A
Imp.1 (RRT 0.68) ([4]; 4 weeks, 25° C./60% RH): 0.10 % Area
Purity vs. initial (%) ([4]; 4 weeks, 25° C./60% RH): 100.0%
API (RRT 1.00) ([4]; 4 weeks, 40° C./75% RH): 99.90 % Area
Description ([4]; 4 weeks, 40° C./75% RH): White powder
Final Form ([4]; 4 weeks, 40° C./75% RH): Form A
Imp.1 (RRT 0.68) ([4]; 4 weeks, 40° C./75% RH): 0.10 % Area
Purity vs. initial (%) ([4]; 4 weeks, 40° C./75% RH): 100.0%
API (RRT 1.00) ([4]; 4 weeks, 60° C.): 99.90 % Area
Description ([4]; 4 weeks, 60° C.): White powder
Final Form ([4]; 4 weeks, 60° C.): Form A
Imp.1 (RRT 0.68) ([4]; 4 weeks, 60° C.): 0.10 % Area
Purity vs. initial (%) ([4]; 4 weeks, 60° C.): 100.0%
HPLC purity change on storage [4, 6]: no obvious HPLC purity change
form change on storage (XRPD) [4, 6]: no form change
API (RRT 1.00) ([5]; pH 2.0 (50 mM HCl—KCl), 24 hrs): 84.93 % Area
Imp. 1 (RRT 0.66) ([5]; pH 2.0 (50 mM HCl—KCl), 24 hrs): 0.15 % Area
Imp. 1 (RRT 0.70) ([5]; pH 2.0 (50 mM HCl—KCl), 24 hrs): 0.67 % Area
Imp. 1 (RRT 0.76) ([5]; pH 2.0 (50 mM HCl—KCl), 24 hrs): 14.25 % Area
Imp. 1 (RRT 1.05) ([5]; pH 2.0 (50 mM HCl—KCl), 24 hrs): — (—: <0.05 area %)
Purity vs. initial (%) ([5]; pH 2.0 (50 mM HCl—KCl), 24 hrs): 85.1%
degradation in solution ([5]; pH 2.0 and pH 4.0 buffers, 24 hrs): Degradation was observed
API (RRT 1.00) ([5]; pH 4.0 (50 mM Citrate), 24 hrs): 98.42 % Area
Imp. 1 (RRT 0.66) ([5]; pH 4.0 (50 mM Citrate), 24 hrs): 0.15 % Area
Imp. 1 (RRT 0.70) ([5]; pH 4.0 (50 mM Citrate), 24 hrs): — (—: <0.05 area %)
Imp. 1 (RRT 0.76) ([5]; pH 4.0 (50 mM Citrate), 24 hrs): 0.38 % Area
Imp. 1 (RRT 1.05) ([5]; pH 4.0 (50 mM Citrate), 24 hrs): 0.06 % Area
Purity vs. initial (%) ([5]; pH 4.0 (50 mM Citrate), 24 hrs): 98.5%
API (RRT 1.00) ([5]; pH 6.0 (50 mM Citrate), 24 hrs): 99.75 % Area
Imp. 1 (RRT 0.66) ([5]; pH 6.0 (50 mM Citrate), 24 hrs): 0.13 % Area
Imp. 1 (RRT 0.70) ([5]; pH 6.0 (50 mM Citrate), 24 hrs): — (—: <0.05 area %)
Imp. 1 (RRT 0.76) ([5]; pH 6.0 (50 mM Citrate), 24 hrs): 0.06 % Area
Imp. 1 (RRT 1.05) ([5]; pH 6.0 (50 mM Citrate), 24 hrs): 0.06 % Area
Purity vs. initial (%) ([5]; pH 6.0 (50 mM Citrate), 24 hrs): 99.8%
API (RRT 1.00) [5, 7]: 99.78 % Area
Imp. 1 (RRT 0.66) [5, 7]: 0.15 % Area
Imp. 1 (RRT 0.70) [5, 7]: — (—: <0.05 area %)
Imp. 1 (RRT 0.76) [5, 7]: — (—: <0.05 area %)
Imp. 1 (RRT 1.05) [5, 7]: 0.07 % Area
Purity vs. initial (%) [5, 7]: 99.9%
API (RRT 1.00) [5, 8]: 99.81 % Area
Imp. 1 (RRT 0.66) [5, 8]: 0.13 % Area
Imp. 1 (RRT 0.70) [5, 8]: — (—: <0.05 area %)
Imp. 1 (RRT 0.76) [5, 8]: — (—: <0.05 area %)
Imp. 1 (RRT 1.05) [5, 8]: 0.06 % Area
Purity vs. initial (%) [5, 8]: 100.0%
API (RRT 1.00) [5, 9]: 99.83 % Area
Imp. 1 (RRT 0.66) [5, 9]: 0.13 % Area
Imp. 1 (RRT 0.70) [5, 9]: — (—: <0.05 area %)
Imp. 1 (RRT 0.76) [5, 9]: — (—: <0.05 area %)
Imp. 1 (RRT 1.05) [5, 9]: 0.04 % Area
Purity vs. initial (%) [5, 9]: 100.0%
Structure (SMILES): CC(C)(C(=O)N1CCOc2c(C#N)cncc2C1)C(F)F [Form A, 4-(3,3-difluoro-2,2-dimethyl-propanoyl)-3,5-dihydro-2H-pyrido[3,4-f][1,4]oxazepine-9-carbonitrile]

Source: patent US20240317776A1, “SOLID FORMS OF 4-(3,3-DIFLUORO-2,2-DIMETHYL-PROPANOYL)-3,5-DIHYDRO-2H-PYRIDO[3,4-F][1,4]OXAZEPINE-9-CARBONITRILE” (Denali Therapeutics Inc., priority 2022, published 2024)
